Tests used:
mouse spleen cells [1] = experiment: IL-12 induction from mouse spleen cells; assay type: cell-based; details: for levels of IL-12 induction by GL-67:pCFA-CAT: addition of 10 μM of chloroquine or 1 μM of quinacrine; for levels of IL-12 induction by pCFA-CAT: co-addition of 10 μM of chloroquine or 1 μM of quinacrine, 24 hours
Procedure: 6-8 week old 8ALB/c mice were sacrificed by cervical dislocation. Spleens were excised and placed in sterile PBS on ice. To prepare single cell suspensions, the spleens were placed in a tissue culture dish in PBS and crushed between the frosted edges of two sterile microscope slides. Cells were pelleted by centrifugation at 1200 rpm for 8 min., and washed 3 times in PBS. After the final wash, the cells were resuspended in RPMI medium supplemented with 25 mM HEPES buffer, 10% fetal bovine serum, 2 mM L-glutamine, and 50 μM 2-mercaptoethanol (2-ME). The resuspended cells were then plated at 6×10^6 cells/ml/well in 24-well culture plates. Supernatant were collected 24 hr after addition of oligonucleotides or plasmid DNA for the measurement of cytokine (IL-12) production.

BALB/c mice [2] = experiment: Cytokine levels in BALF (ELISA) after intranasal instillation; details: for cytokine levels in BALF at higher concentrations of the compound: instilled with GL-67:pCFA-CAT; for inhibition of cytokine production in the lung: without affecting gene expression
Procedure: Cytokine levels in the mouse BALF were quantitated using enzyme-linked immunosorbent assay (ELISA) kits as specified by the manufacturers. IFN-γ, TNF-α, IL1-α, IL-1β, IL-10 and IL-6 ELISA kits were from Genzyme Corporation, mKC, MIP-2 and GM-CSF ELISA kits were from R&D Systems, and Leukotriene B4 ELISA kit was from Perseptive Diagnostics.
BALB/c mice were instilled intranasally with 100 μl of complex as described. […] The animals were euthanized and their lungs were lavaged 24 h post-instillation using phosphate-buffered saline (PBS). The recovered BALF were centrifuged at 1,500 rpm for 4 min, and the resulting supernatants were removed and frozen at −80° C. for subsequent cytokine analysis. The cell pellets were resuspended in PBS for microscopic determination of cell number and cell types.
Separate groups of mice were instilled with either (m)pDNA or unmethylated pDNA alone, or vehicle, and their bronchoalveolar lavage fluids collected for analysis at 24 h post-treatment.
The animals were euthanized and their lungs were lavaged 24 h post-instillation using phosphate-buffered saline (PBS). The recovered BALF were centrifuged at 1,500 rpm for 4 min., and the resulting supernatants were removed and frozen at −80° C. for subsequent cytokine analysis.
Cytokine levels were quantitated using enzyme-linked immunosorbent assay (ELISA) kits as specified by the manufacturer (Genzyme Corporation, Framingham, MA).

mouse spleen cells [3] = details: 10 μM chloroquine or 1 μM quinacrine
Procedure: Another strategy to reduce the stimulatory properties of the pDNA vector is to use specific inhibitors of 1 he CpG signaling pathway. […] These compounds were tested for their ability to inhibit the stimulatory properties of pDNA and cationic lipid-pDNA complexes in vitro and in the mouse lung.

BALB/c mice [4] = experiment: Lung histopathology after intranasal instillation; details: 2 days post-instillation, blinded
Text: The histopathological changes within BALB/c mouse lungs following administration of either cationic lipid alone, pDNA alone, or cationic lipid:pDNA complexes were also examined. […] Mice were sacrificed 2 days post-instillation and the lungs were processed for histological examination in a blinded manner.
Lungs were fixed by inflation at 30 cm of H2O pressure with 2% paraformaldehyde and 0.2% glutaraldehyde. Representative samples were taken from each lung lobe, embedded in glycol methacrylate, sectioned and stained with hematoxylin and eosin. Histopathology on the lung was evaluated in a blinded fashion and graded subjectively using a scale of 0 to 4, with a score of 0 indicating no abnormal findings and a score of 4 reflecting severe changes with intense infiltrates See Scheule et al., Hum.

Structure (SMILES)	induction of IL-12 production from mouse spleen cells in vitro (mouse spleen cells [1])	levels of IL-12 induction by GL-67:pCFA-CAT (mouse spleen cells [1])	levels of IL-12 induction by pCFA-CAT (mouse spleen cells [1])	cytokine levels in BALF at higher concentrations of the compound (BALB/c mice [2])	inhibition of cytokine production in the lung (BALB/c mice [2]) [%]	effects on cell viability (mouse spleen cells [3])	effects on expression of the CAT reporter gene (mouse spleen cells [3])	levels of TNF-α, IFN-γ, IL-6 and murine KC (these four cytokines) in the BALF (BALB/c mice [2]; 24 h after intranasal instillation of the component alone)	contribution to the cytokine induction in the BALF (BALB/c mice [2]; with the exception of KC)	lung inflammation (histopathology, score on a scale from 0 to 4) (BALB/c mice [4])
CCN(CC)CCCC(C)Nc1c2ccc(Cl)cc2nc2ccc(OC)cc12 (stereo not shown) [quinacrine]	greatly reduced	near background levels	near background levels	did not further decrease	50	no discernible effects	no discernible effects	–	–	–
CC(C)CCCC(C)C1CCC2C3CC=C4CC(OC(=O)N(CCCN)CCCCNCCCN)CCC4(C)C3CCC12C (stereo not shown) [GL-67]	–	–	–	–	–	–	–	low levels	did not contribute significantly	scored slightly lower
CCN(CC)CCCC(C)Nc1ccnc2cc(Cl)ccc12 (stereo not shown) [chloroquine]	greatly reduced	near background levels	near background levels	did not further decrease	50	–	no discernible effects	–	–	–

Reference: patent US20020065236A1, “CpG reduced plasmids and viral vectors” (priority 1998, published 2002)
